Measured values as given in patent publication US20220363665A1, “QUINOLINE COMPOUNDS FOR THE TREATMENT OF AUTOIMMUNE DISEASE” (Hoffmann-La Roche Inc., priority 2019, published 2022).

Each compound was assayed against T1, human TLR8 (Homo sapiens, UniProt Q9NR97) (assay: HEK293-Blue-hTLR-8 cells assay (SEAP reporter, R848 stimulation)). Settings: HEK293-Blue-hTLR8 cells, R848, 20 hrs.
T1 construct: host or cells: HEK293 (HEK-Blue hTLR8)
T1 sequence (Q9NR97 27-1041): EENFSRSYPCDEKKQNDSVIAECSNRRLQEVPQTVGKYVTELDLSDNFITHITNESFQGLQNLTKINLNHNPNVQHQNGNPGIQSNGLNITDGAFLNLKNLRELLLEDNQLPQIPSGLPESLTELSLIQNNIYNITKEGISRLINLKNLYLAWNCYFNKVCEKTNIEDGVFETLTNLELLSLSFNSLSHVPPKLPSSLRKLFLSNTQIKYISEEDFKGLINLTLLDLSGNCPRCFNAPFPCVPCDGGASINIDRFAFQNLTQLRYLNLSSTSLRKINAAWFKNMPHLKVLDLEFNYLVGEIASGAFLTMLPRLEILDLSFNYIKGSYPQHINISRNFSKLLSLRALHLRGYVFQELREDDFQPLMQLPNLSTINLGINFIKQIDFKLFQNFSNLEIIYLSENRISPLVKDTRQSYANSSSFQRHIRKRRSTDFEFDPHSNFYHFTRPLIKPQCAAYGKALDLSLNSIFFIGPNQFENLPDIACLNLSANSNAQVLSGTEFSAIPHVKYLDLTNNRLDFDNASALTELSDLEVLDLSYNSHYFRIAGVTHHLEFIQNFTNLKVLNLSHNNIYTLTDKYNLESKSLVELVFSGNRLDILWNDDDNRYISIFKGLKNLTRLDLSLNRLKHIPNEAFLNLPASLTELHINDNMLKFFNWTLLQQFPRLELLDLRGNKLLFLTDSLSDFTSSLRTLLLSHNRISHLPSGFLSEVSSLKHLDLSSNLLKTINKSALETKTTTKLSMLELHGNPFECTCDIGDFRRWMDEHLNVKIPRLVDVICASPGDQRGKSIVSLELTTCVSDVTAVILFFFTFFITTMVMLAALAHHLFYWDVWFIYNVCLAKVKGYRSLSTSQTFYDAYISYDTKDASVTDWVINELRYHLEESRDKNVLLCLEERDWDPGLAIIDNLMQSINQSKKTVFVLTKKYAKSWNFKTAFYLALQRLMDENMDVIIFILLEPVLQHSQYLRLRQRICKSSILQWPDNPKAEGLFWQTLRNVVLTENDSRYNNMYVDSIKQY
Assay type: cell-based
Procedure: The following tests were carried out in order to determine the activity of the compounds of formula (I) in HEK293-Blue-hTLR-7/8/9 cells assay.
HEK293-Blue-hTLR-8 Cells Assay:
A stable HEK293-Blue-hTLR-8 cell line was purchased from InvivoGen (Cat. #: hkb-htlr8, San Diego, Calif., USA). These cells were originally designed for studying the stimulation of human TLR8 by monitoring the activation of NF-κB. A SEAP (secreted embryonic alkaline phosphatase) reporter gene was placed under the control of the IFN-β minimal promoter fused to five NF-κB and AP-1-binding sites. The SEAP was induced by activating NF-κB and AP-1 via stimulating HEK-Blue hTLR8 cells with TLR8 ligands. Therefore the reporter expression was declined by TLR8 antagonist under the stimulation of a ligand, such as R848, for incubation of 20 hrs. The cell culture supernatant SEAP reporter activity was determined using QUANTI-Blue™ kit (Cat #. rep-qbl, Invivogen, San Diego, Calif., USA) at a wavelength of 640 nm, a detection medium that turns purple or blue in the presence of alkaline phosphatase.
HEK293-Blue-hTLR8 cells were incubated at a density of 250,000˜450,000 cells/mL in a volume of 170 μL in a 96-well plate in Dulbecco's Modified Eagle's medium (DMEM) containing 4.5 g/L glucose, 50 U/mL penicillin, […], […], 2 mM L-glutamine, 10% (v/v) heat-inactivated fetal bovine serum with addition of 20 μL test compound in a serial dilution in the presence of final DMSO at 1% and 10 μL of 60 μM R848 in above DMEM, perform incubation under 37° C. in a CO2 incubator for 20 hrs. Then 20 μL of the supernatant from each well was incubated with 180 μL Quanti-blue substrate solution at 37° C. for 2 hrs and the absorbance was read at 620˜655 nm using a spectrophotometer. The signalling pathway that TLR8 activation leads to downstream NF-KB activation has been widely accepted, and therefore similar reporter assay was modified for evaluating TLR8 antagonist.

SMILES | IC50 [nM]
C[C@@H]1CN(c2ccc(C(F)(F)F)c3ncccc23)C[C@H](C(=O)NC2CC3COCC(C2)N3)O1 (stereo partly drawn) [Example 33, (2R,6R)-6-methyl-N-(3-oxa-9-azabicyclo[3.3.1]nonan-7-yl)-4-[8-(trifluoromethyl)-5-quinolyl]morpholine-2-carboxamide] | < 3
C[C@@H]1CN(c2ccc(C(F)(F)F)c3ncccc23)C[C@H](C(=O)NC2CC3CNCC32)O1 (single isomer, unassigned) [Example 49B] | 9
C[C@@H]1CN(c2ccc(C(F)(F)F)c3ncccc23)C[C@H](C(=O)NCC2CNCC2(F)F)O1 (stereo partly drawn) [Example 29, (2R,6R)-N-[(4,4-difluoropyrrolidin-3-yl)methyl]-6-methyl-4-[8-(trifluoromethyl)-5-quinolyl]morpholine-2-carboxamide] | 14
C[C@@H]1CN(c2ccc(C(F)(F)F)c3ncccc23)C[C@H](C(=O)NCC2COCCN2C)O1 (stereo partly drawn) [Example 11, (2R,6R)-6-methyl-N-[(4-methylmorpholin-3-yl)methyl]-4-[8-(trifluoromethyl)-5-quinolyl]morpholine-2-carboxamide] | 62
C[C@@H]1CN(c2ccc(C(F)(F)F)c3ncccc23)C[C@H](C(=O)NC2CCN(C)CC2)O1 [Example 5, (2R,6R)-6-methyl-N-(1-methyl-4-piperidyl)-4-[8-(trifluoromethyl)-5-quinolyl]morpholine-2-carboxamide] | < 3
C[C@@H]1CN(c2ccc(C(F)(F)F)c3ncccc23)C[C@H](C(=O)N2CC(N)C2)O1 [Example 7, (3-aminoazetidin-1-yl)-[(2R,6R)-6-methyl-4-[8-(trifluoromethyl)-5-quinolyl]morpholin-2-yl]methanone] | 35
C[C@@H]1CN(c2ccc(C(F)(F)F)c3ncccc23)C[C@H](C(=O)N2CCC(N)C2)O1 (stereo partly drawn) [Example 10, (3-aminopyrrolidin-1-yl)-[(2R,6R)-6-methyl-4-[8-(trifluoromethyl)-5-quinolyl]morpholin-2-yl]methanone] | 29
C[C@@H]1CN(c2ccc(C(F)(F)F)c3ncccc23)C[C@H](C(=O)NC2CCCNCC2)O1 (stereo partly drawn) [Example 8, (2R,6R)-N-(azepan-4-yl)-6-methyl-4-[8-(trifluoromethyl)-5-quinolyl]morpholine-2-carboxamide] | < 3
C[C@@H]1CN(c2ccc(Br)c3ncccc23)C[C@H](C(=O)NC2CNCC2F)O1 (stereo partly drawn) [Example 41, cis-(2R,6R)-4-(8-bromo-5-quinolyl)-N-[4-fluoropyrrolidin-3-yl]-6-methyl-morpholine-2-carboxamide] | < 3
C[C@@H]1CN(c2ccc(C(F)(F)F)c3ncccc23)C[C@H](C(=O)N2CCC3(CCNCC3)CC2)O1 [Example 32, 3,9-diazaspiro[5.5]undecan-3-yl-[(2R,6R)-6-methyl-4-[8-(trifluoromethyl)-5-quinolyl]morpholin-2-yl]methanone] | 20
Cc1ccc(N2C[C@@H](C)O[C@@H](C(=O)N[C@@H]3CNC[C@@H]3F)C2)c2cccnc12 [Example 21, cis-(2R,6R)-N-14-fluoropyrrolidin-3-yl1-6-methyl-4-(8-methyl-5-quinolyl)morpholine-2carboxamide] | 9
C[C@@H]1CN(c2ccc(I)c3ncccc23)C[C@H](C(=O)NC2CNCC2F)O1 (stereo partly drawn) [Example 40, cis-(2R,6R)-N-[4-fluoropyrrolidin-3-yl]-4-(8-iodo-5-quinolyl)-6-methyl-morpholine-2-carboxamide] | < 3
C[C@@H]1CN(c2ccc(C(F)(F)F)c3ncccc23)C[C@H](C(=O)NCC2CN(C)CCO2)O1 (stereo partly drawn) [Example 3, (2R,6R)-6-methyl-N-[(4-methylmorpholin-2-yl)methyl]-4-[8-(trifluoromethyl)-5-quinolyl]morpholine-2-carboxamide] | < 3
C[C@@H]1CN(c2ccc(Br)c3ncccc23)C[C@H](C(=O)NC2CCN(C)CC2)O1 [Example 42, (2R,6R)-4-(8-bromo-5-quinolyl)-6-methyl-N-(1-methyl-4-piperidyl)morpholine-2-carboxamide] | < 3
C[C@@H]1CN(c2ccc(Cl)c3ncccc23)C[C@H](C(=O)N[C@H]2CNC[C@H]2F)O1 [Example 22, (2R,6R)-4-(8-chloro-5-quinolyl)-N-[(3S,4R)-4-fluoropyrrolidin-3-yl]-6-methyl-morpholine-2-carboxamide] | 19
C[C@@H]1CN(c2ccc(C(F)(F)F)c3ncccc23)C[C@H](C(=O)NCC2CCCCN2C)O1 (stereo partly drawn) [Example 4, (2R,6R)-6-methyl-N-[(1-methyl-2-piperidyl)methyl]-4-[8-(trifluoromethyl)-5-quinolyl]morpholine-2-carboxamide] | 10
C[C@@H]1CN(c2ccc(I)c3ncccc23)C[C@H](C(=O)NC2CCN(C)CC2)O1 [Example 38, (2R,6R)-4-(8-iodo-5-quinolyl)-6-methyl-N-(1-methyl-4-piperidyl)morpholine-2-carboxamide] | < 3
C[C@@H]1CN(c2ccc(C(F)(F)F)c3ncccc23)C[C@H](C(=O)NC2CC3CCCC(C2)N3)O1 (single isomer, unassigned) [Example 34A] | < 3
C[C@@H]1CN(c2ccc(C(F)(F)F)c3ncccc23)C[C@H](C(=O)NC2CNC[C@@H]2F)O1 (stereo partly drawn) [Example 2, cis-(2R,6R)-N-(4-fluoropyrrolidin-3-yl)-6-methyl-4-[8-(trifluoromethyl)-5-quinolyl]morpholine-2-carboxamide] | 6
C[C@@H]1CN(c2ccc(C(F)(F)F)c3ncccc23)C[C@H](C(=O)NC2C3CNCC2COC3)O1 (single isomer, unassigned) [Example 46A] | 16
C[C@@H]1CN(c2ccc([N+](=O)[O-])c3ncccc23)C[C@H](C(=O)NCC2CN(C)CCO2)O1 (stereo partly drawn) [Example 18, (2R,6R)-6-methyl-N-[(4-methylmorpholin-2-yl)methyl]-4-(8-nitro-5-quinolyl)morpholine-2-carboxamide] | < 3
C[C@@H]1CN(c2ccc(C(F)(F)F)c3ncccc23)C[C@H](C(=O)NC2C3CCC2CNC3)O1 (stereo partly drawn) [Example 31, (2R,6R)-N-(3-azabicyclo[3.2.1]octan-8-yl)-6-methyl-4-[8-(trifluoromethyl)-5-quinolyl]morpholine-2-carboxamide] | 9
C[C@@H]1CN(c2ccc(C(F)(F)F)c3ncccc23)C[C@H](C(=O)NC2CN(C)CC23CC3)O1 (stereo partly drawn) [Example 9, (2R,6R)-6-methyl-N-(5-methyl-5-azaspiro[2.4]heptan-7-yl)-4-[8-(trifluoromethyl)-5-quinolyl]morpholine-2-carboxamide] | < 3
Cc1ccc(N2C[C@@H](C)O[C@@H](C(=O)NCC3CN(C)CCO3)C2)c2cccnc12 (stereo partly drawn) [Example 17, (2R,6R)-6-methyl-N-[(4-methylmorpholin-2-yl)methyl]-4-(8-methyl-5-quinolyl)morpholine-2-carboxamide] | 25
C[C@@H]1CN(c2ccc(Cl)c3ncccc23)C[C@H](C(=O)NC2CCN(C)CC2)O1 [Example 24, (2R,6R)-4-(8-chloro-5-quinolyI)-6-methyl-N-(1-methyl-4-piperidyl)morpholine-2-carboxamide] | < 3
C[C@H]1C[C@@H](N)CN(c2ccc(Cl)c3ncccc23)C1 [Example 23, (3R,5S)-1-(8-chloro-5-quinolyl)-5-methyl-piperidin-3-amine] | 4
